Experiments:
[1] = biological target: human catalytic domain HDAC4 protein (amino acids 648-1032) (Homo sapiens (Human), UniProt P56524); experiment: Inhibition of HDAC4 catalytic domain enzymatic activity, fluorogenic substrate Boc-Lys(Tfa)-AMC; settings: HDAC4 catalytic domain enzyme, read-out: Biochemical HDAC4 IC50
Text: Analysis of Inhibition of HDAC4 with Class IIa Histone Deacetylase (HDAC) Inhibitors
The potency of Class IIa Histone Deacetylase (HDAC) inhibitors is quantified by measuring the Histone Deacetylase 4 (HDAC4) catalytic domain enzymatic activity using the fluorogenic substrate, Boc-Lys(Tfa)-AMC. The substrate is deacetylated to Boc-Lys-AMC by HDAC4. Cleavage by trypsin results in the release of the fluorophore AMC from the deacetylated substrate. The fluorescence of the sample is directly related to the histone deacetylase activity in the sample.
Serially dilute HDAC inhibitor compounds. […] Stocks of 6 μl aliquots of the 10 mM compound in DMSO are prepared and stored at […]. From one stock aliquot of each compound to be tested and the reference compound, a 16-point serial dilution is prepared according to Table 1 using a 125 μl 16-channel Matrix multi-channel pipette (Matrix Technologies Ltd).
2 μl (200×) of each diluted solution and each control (full activity: 100% DMSO alone or full inhibition 1 mM) is stamped into V-bottomed polypropylene 384-well compound plates using either the Bravo (384-well head from Agilent) or 12.5 μl 16-channel Matrix multi-channel pipette (Matrix Technologies Ltd).
Prepare HDAC4 catalytic domain enzyme (0.2 μg/mL).
Prepare 5× ([…]) Boc-Lys(Tfa)-AMC Substrate. 5× (50 μM) substrate is prepared just prior to the addition to the assay. A 1 mM substrate stock is made by diluting a 100 mM Boc-Lys(Tfa)-AMC in DMSO solution 1:100 by adding it drop-wise to assay buffer (equilibrated to r.t.) while vortexing at slow speed to prevent precipitation. The 5× substrate is prepared by diluting the 1 mM substrate solution 1:20 by adding it drop-wise to assay buffer (equilibrated to r.t.) while vortexing at slow speed to prevent precipitation.
Prepare 3× (30 μM) Developer/Stop Solution.
Assay. 5 μl of each solution of 1:20 diluted compound from above is transferred to a clear bottomed, black, 384-well assay plate using the Bravo or the Janus (384-well MDT head from Perkin Elmer). Using a 16-channel Matrix multi-channel pipette, 35 μl of the working solution of HDAC4 catalytic domain enzyme (0.2 μg/mL in assay buffer) is transferred to the assay plate. […] The assay plate is then shaken for two minutes on an orbital shaker at 900 rpm (rotations per minute). Next the plate is incubated for 15 minutes at 37° C. The reaction is stopped by adding 25 μl of 3× (3 μM) developer/stop solution to the assay plates using either the Bravo, Janus or a 16-channel Matrix multi-channel pipette. Assay plates are then shaken for 5 minutes on an orbital shaker at 1200 rpm. Next, the assay plates are incubated at 37° C. for 1 hour in a tissue culture incubator.

[2] = test system: cellular histone deacetylase enzymatic activity in Jurkat E6-1 cells; experiment: Inhibition of cellular HDAC activity in Jurkat E6-1 cells, fluorogenic substrate Boc-Lys(Tfa)-AMC; type: cell-based; settings: Homo sapiens, read-out: Cell IC50
Text: Analysis of Inhibition of Cellular HDAC Activity with Class IIa Histone Deacetylase (HDAC) Inhibitors
The potency of Class IIa Histone Deacetylase (HDAC) inhibitors is quantified by measuring the cellular histone deacetylase enzymatic activity using the fluorogenic substrate, Boc-Lys(Tfa)-AMC. After penetration in Jurkat E6-1 cells, the substrate is deacetylated to Boc-Lys-AMC. After cell lysis and cleavage by trypsin, the fluorophore AMC is released from the deacetylated substrate only. The fluorescence of the sample is directly related to the histone deacetylase activity in the sample.
Jurkat E6.1 cell culture and plating. Jurkat E6.1 cells are cultured according to standard cell culture protocols in Jurkat E6.1 Growth Media (RPMI without phenol red, 10% FBS, 1 mM HEPES, and 1 mM Sodium Pyruvate). Jurkat E6.1 cells are counted using a Coulter Counter and resuspended in Jurkat E6.1 growth media at a concentration of 75,000 cells/35 μl. 35 μl or 75,000 cells is seeded into Greiner microtitre assay plates. The plates are then incubated at 37° C. and 5% CO2 while other assay components are being prepared.
Serially dilute HDAC inhibitor compounds. Serial dilutions of the HDAC inhibitors and control reference compound (1-(5-(3-((4-(1,3,4-oxadiazol-2-yl)phenoxy)methyl)-1,2,4-oxadiazol-5-yl)thiophen-2-yl)-2,2,2-trifluoroethanone) are made by first resuspending the lyophilized compound to a final concentration of 10 mM in […]. Stocks of 70 μl aliquots of the 10 mM compound in DMSO are prepared and stored at −20° C. From one stock aliquot of each compound to be tested and the reference compound, a 16-point serial dilution is prepared according to Table 1 using a 125 μl 16-channel Matrix multi-channel pipette.
2 μl (200×) of each diluted solution and each control (full activity: 100% DMSO alone or full inhibition 1 mM) is stamped into V-bottom polypropylene 384-well compound plates using either the Bravo, Janus, or 12.5 μl 16-channel Matrix multi-channel pipette. Each well with the 200× compound solution is diluted 1:20 by the addition of 38 μl Jurkat assay buffer+DMSO (9.5% DMSO, RPMI without phenol red, 0.09% FBS, 9 mM Hepes, and 0.9 mM Sodium Pyruvate equilibrated to r.t.)
Prepare 5× (500 μM) Boc-Lys(Tfa)-AMC substrate. 5× (500 μM) substrate is prepared just prior to the addition to the assay. The 5× substrate is prepared by diluting a 100 mM Boc-Lys(Tfa)-AMC in DMSO solution 1:200 by adding it drop-wise to Jurkat assay medium (RPMI without phenol red, 0.1% FBS, 10 mM Hepes, and 1 mM Sodium Pyruvate equilibrated to 37° C.) while vortexing at slow speed to prevent precipitation.
Prepare 3× Lysis Buffer. 10 mL of 3× lysis buffer is prepared with 8.8 mL of 3× stock lysis buffer (50 mM Tris-HCl, pH 8.0, 137 mM NaCl, 2.7 mM KCl, 1 mM MgCl2, 1% Nonidet P40 Substitute equilibrated to r.t.) and 1.2 mL of 3 mg/mL Trypsin equilibrated to r.t.
Assay. 5 μl of each solution of 1:20 diluted compound from above is transferred to the Greiner microtitre assay plates with 75,000 cells/well using the Bravo. Cells are then incubated for 2 hours at 37° C. and 5% CO2. The assay is then started by adding 10 μl of 5× (500 μM) substrate to the assay plate using either the Bravo or 16-channel Matrix multi-channel pipette. The cells are then incubated for 3 hours at 37° C. and 5% CO2. Next, 25 μl of 3× lysis buffer is added to each well using either the 125 μl 16 channel pipette or the Bravo. The assay plate is then incubated overnight (15-16 hours) at 37° C. and 5% CO2. The following day, the plates are shaken on an orbital shaker for 1 minute at 900 rpm. Finally the top read fluorescence (Excitation: 355 nm, Emission: 460 nm) is measured using PerkinElmer EnVision.

Sequence of human catalytic domain HDAC4 protein (amino acids 648-1032) (P56524 648-1032): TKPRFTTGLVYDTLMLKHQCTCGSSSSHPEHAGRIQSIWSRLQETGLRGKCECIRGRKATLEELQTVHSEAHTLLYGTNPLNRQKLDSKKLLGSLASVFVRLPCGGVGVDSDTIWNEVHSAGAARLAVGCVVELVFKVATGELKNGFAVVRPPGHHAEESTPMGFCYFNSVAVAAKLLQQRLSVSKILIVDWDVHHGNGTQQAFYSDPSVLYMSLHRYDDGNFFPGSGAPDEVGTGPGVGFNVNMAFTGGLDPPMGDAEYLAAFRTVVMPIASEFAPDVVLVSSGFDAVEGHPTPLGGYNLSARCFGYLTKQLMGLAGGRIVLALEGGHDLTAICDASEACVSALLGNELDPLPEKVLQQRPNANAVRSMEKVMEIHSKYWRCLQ

An IC50 [1] of 680 nM and an IC50 [2] of 540 nM were found for `Cc1c(F)cccc1[C@]1(C(=O)NO)CC[C@H](Oc2ccccc2)CC1` [Example 101, (1r,4r)-1-(3-fluoro-2-methylphenyl)-N-hydroxy-4-phenoxycyclohexanecarboxamide] in this work.
An IC50 [1] of 80 nM and an IC50 [2] of 160 nM were found for `Cc1c(F)cccc1[C@]1(C(=O)NO)CC[C@H](c2nc3ccccc3s2)C1` (relative stereo) [Example 75, (1S,3S*)-3-(Benzo[d]thiazol-2-yl)-1-(3-fluoro-2-methylphenyl)-N-hydroxycyclopentanecarboxamide] in this work.
An IC50 [1] of 14000 nM and an IC50 [2] of 49000 nM were found for `Cc1c(F)cccc1[C@]1(C(=O)NO)CC[C@@H](OCc2ccc(F)cc2)CC1` [Example 102, (1s,4s)-1-(3-fluoro-2-methylphenyl)-4-((4-fluorobenzyl)oxy)-N-hydroxycyclohexanecarboxamide] in this work.
An IC50 [1] of 2500 nM and an IC50 [2] of 15600 nM were found for `O=C(NO)C1(c2c(F)cccc2Cl)CCCC1` [Example 22, 1-(2-Chloro-6-fluorophenyl)-N-hydroxycyclopentanecarboxamide] in this work.
An IC50 [1] of 110 nM and an IC50 [2] of 140 nM were found for `Cc1c(F)cccc1[C@]1(C(=O)NO)CC[C@@H](c2ccc3c(cnn3C)c2)C1` (relative stereo) [Example 63, (1S,3R*)-1-(3-fluoro-2-methylphenyl)-N-hydroxy-3-(1-methyl-1H-indazol-5-yl)cyclopentanecarboxamide] in this work.
An IC50 [1] of 330 nM and an IC50 [2] of 1700 nM were found for `COc1ncc([C@H]2CC[C@@](C(=O)NO)(c3cccc(F)c3C)C2)cc1F` (relative stereo) [Example 44, (1S,3S*)-1-(3-fluoro-2-methylphenyl)-3-(5-fluoro-6-methoxypyridin-3-yl)-N-hydroxycyclopentanecarboxamide] in this work.
An IC50 [1] of 1900 nM and an IC50 [2] of 15100 nM were found for `O=C(NO)C1(c2ccccc2Cl)CCCC1` [Example 26, 1-(2-Chlorophenyl)-N-hydroxycyclopentanecarboxamide] in this work.
An IC50 [1] greater than 50000 nM and an IC50 [2] greater than 50000 nM were found for `N#Cc1cccc(C2(C(=O)NO)CCCC2)c1` [Example 28, 1-(3-Cyanophenyl)-N-hydroxycyclopentanecarboxamide] in this work.
An IC50 [1] of 98 nM and an IC50 [2] of 180 nM were found for `Cc1c(F)cccc1[C@]1(C(=O)NO)CC[C@@H](c2ccn3ccnc3c2)C1` (relative stereo) [Example 57, (1S,3R*)-1-(3-fluoro-2-methylphenyl)-N-hydroxy-3-(imidazo[1,2-a]pyridin-7-yl)cyclopentanecarboxamide] in this work.
An IC50 [1] of 160 nM and an IC50 [2] of 1500 nM were found for `Cc1c(F)cccc1[C@]1(C(=O)NO)CC[C@@H](Oc2ccccc2)C1` [Example 95, (1S,3R)-1-(3-fluoro-2-methylphenyl)-N-hydroxy-3-phenoxycyclopentanecarboxamide] in this work.
An IC50 [1] of 130 nM and an IC50 [2] of 260 nM were found for `Cc1c(F)cccc1[C@]1(C(=O)NO)CC[C@H](Oc2ccccc2)C1` [Example 96, (1S,3S)-1-(3-fluoro-2-methylphenyl)-N-hydroxy-3-phenoxycyclopentanecarboxamide] in this work.
An IC50 [1] of 82 nM and an IC50 [2] of 300 nM were found for `Cc1c(F)cccc1[C@]1(C(=O)NO)CC[C@H](c2ccn3ccnc3c2)C1` (relative stereo) [Example 58, (1S,3S*)-1-(3-fluoro-2-methylphenyl)-N-hydroxy-3-(imidazo[1,2-a]pyridin-7-yl)cyclopentanecarboxamide] in this work.
An IC50 [1] of 4200 nM and an IC50 [2] of 26000 nM were found for `Cc1c(F)cccc1[C@]1(C(=O)NO)CC[C@@H](c2ccc3cnn(C)c3c2)CC1` [Example 103, (1s,4s)-1-(3-fluoro-2-methylphenyl)-N-hydroxy-4-(1-methyl-1H-indazol-6-yl)cyclohexanecarboxamide] in this work.
An IC50 [1] greater than 50000 nM and an IC50 [2] greater than 50000 nM were found for `Cc1c(F)cccc1C1(C(=O)NO)CCCCCC1` [Example 107, 1-(3-Fluoro-2-methylphenyl)-N-hydroxycycloheptanecarboxamide] in this work.
An IC50 [1] of 330 nM and an IC50 [2] of 2630 nM were found for `Cc1c(F)cc(F)cc1C1(C(=O)NO)CCCC1` [Example 30, 1-(3,5-Difluoro-2-methylphenyl)-N-hydroxycyclopentanecarboxamide] in this work.

Source: US9783488B2 (CHDI Foundation, Inc., priority 2013, dated 2017)
